Measured values from the NIST ThermoML archive (doi:10.1021/je9004036).
“And” between values parts separate entries of the source, which are not always exact repeats. Equal entries are not always repeated. Numbers after ± are expanded uncertainties.

Tests used:
[1] = for vapor or sublimation pressure: Liquid, Calculated from knudsen effusion weight loss; for Normal melting temperature: Crystal, DTA
[2] = Molar enthalpy of transition or fusion; conditions: Crystal 1; DSC

COc1ccc(N)c(C(=O)O)c1 [2-amino-5-methoxybenzoic acid]
[1]
Conditions | vapor or sublimation pressure
353.13 K | 0.0001 ± 2e-05 kPa and 0.000101 ± 2e-05 kPa
355.15 K | 0.000131 ± 2.1e-05 kPa and 0.000128 ± 2.1e-05 kPa and 0.00013 ± 2.1e-05 kPa
357.2 K | 0.000159 ± 2.1e-05 kPa and 0.000158 ± 2.1e-05 kPa
359.18 K | 0.000202 ± 2.1e-05 kPa and 0.000196 ± 2.1e-05 kPa and 0.000195 ± 2.1e-05 kPa
361.15 K | 0.000251 ± 2.2e-05 kPa and 0.000249 ± 2.2e-05 kPa and 0.000252 ± 2.2e-05 kPa
363.2 K | 0.000316 ± 2.3e-05 kPa and 0.000304 ± 2.3e-05 kPa and 0.000306 ± 2.3e-05 kPa
365.18 K | 0.000384 ± 2.4e-05 kPa and 0.000376 ± 2.4e-05 kPa
367.16 K | 0.000479 ± 2.6e-05 kPa and 0.000458 ± 2.6e-05 kPa and 0.000447 ± 2.6e-05 kPa
369.18 K | 0.000577 ± 2.9e-05 kPa and 0.000562 ± 2.8e-05 kPa and 0.000553 ± 2.8e-05 kPa
371.14 K | 0.000723 ± 3.3e-05 kPa and 0.000704 ± 3.2e-05 kPa and 0.000716 ± 3.2e-05 kPa
373.17 K | 0.000898 ± 3.8e-05 kPa and 0.000864 ± 3.7e-05 kPa and 0.000856 ± 3.6e-05 kPa
375.17 K | 0.001076 ± 8.5e-05 kPa and 0.001049 ± 8.2e-05 kPa and 0.001039 ± 8.1e-05 kPa

Conditions | Molar enthalpy of transition or fusion [kcal/mol] | Normal melting temperature [°C]
[1] | – | 151.81 ± 0.84
[2] | 5.47 ± 0.124 | –

COc1cccc(C(=O)O)c1N [2-amino-3-methoxybenzoic acid]
[1]
Conditions | vapor or sublimation pressure
349.12 K | 0.000123 ± 2e-05 kPa and 0.000121 ± 2e-05 kPa
351.18 K | 0.000152 ± 2.1e-05 kPa and 0.00015 ± 2.1e-05 kPa and 0.000149 ± 2.1e-05 kPa
353.19 K | 0.000194 ± 2.1e-05 kPa and 0.000186 ± 2.1e-05 kPa and 0.000183 ± 2.1e-05 kPa
355.13 K | 0.000235 ± 2.2e-05 kPa and 0.000232 ± 2.2e-05 kPa and 0.000234 ± 2.2e-05 kPa
357.18 K | 0.000297 ± 2.3e-05 kPa and 0.000285 ± 2.2e-05 kPa and 0.000283 ± 2.2e-05 kPa
359.12 K | 0.000362 ± 2.4e-05 kPa and 0.000356 ± 2.4e-05 kPa and 0.000355 ± 2.4e-05 kPa
360.13 K | 0.000407 ± 2.5e-05 kPa and 0.000404 ± 2.5e-05 kPa and 0.0004 ± 2.5e-05 kPa
361.16 K | 0.000446 ± 2.6e-05 kPa and 0.000437 ± 2.5e-05 kPa and 0.000431 ± 2.5e-05 kPa
363.18 K | 0.000552 ± 2.8e-05 kPa and 0.000537 ± 2.8e-05 kPa and 0.000527 ± 2.7e-05 kPa
367.18 K | 0.000847 ± 3.6e-05 kPa and 0.000823 ± 3.5e-05 kPa and 0.000808 ± 3.5e-05 kPa
369.18 K | 0.001031 ± 8e-05 kPa and 0.001004 ± 7.8e-05 kPa and 0.000983 ± 4e-05 kPa

Conditions | Molar enthalpy of transition or fusion [kcal/mol] | Normal melting temperature [°C]
[1] | – | 169.86 ± 0.63
[2] | 5.79 ± 0.131 | –

COc1cc(C(=O)O)ccc1N [4-amino-3-methoxybenzoic acid]
[1]
Conditions | vapor or sublimation pressure
373.14 K | 0.000103 ± 2e-05 kPa and 0.000102 ± 2e-05 kPa
375.15 K | 0.00013 ± 2.1e-05 kPa and 0.000127 ± 2.1e-05 kPa and 0.000126 ± 2.1e-05 kPa
377.18 K | 0.000163 ± 2.1e-05 kPa and 0.000156 ± 2.1e-05 kPa and 0.000153 ± 2.1e-05 kPa
379.17 K | 0.000192 ± 2.1e-05 kPa and 0.000186 ± 2.1e-05 kPa and 0.000196 ± 2.1e-05 kPa
381.17 K | 0.00025 ± 2.2e-05 kPa and 0.00024 ± 2.2e-05 kPa and 0.000232 ± 2.2e-05 kPa
383.18 K | 0.000301 ± 2.3e-05 kPa
385.16 K | 0.000384 ± 2.4e-05 kPa and 0.000376 ± 2.4e-05 kPa and 0.000374 ± 2.4e-05 kPa
387.17 K | 0.000476 ± 2.6e-05 kPa and 0.000455 ± 2.6e-05 kPa and 0.000444 ± 2.5e-05 kPa
389.16 K | 0.000587 ± 2.9e-05 kPa and 0.000573 ± 2.9e-05 kPa and 0.00057 ± 2.8e-05 kPa
391.17 K | 0.000724 ± 3.3e-05 kPa and 0.000696 ± 3.2e-05 kPa and 0.000678 ± 3.1e-05 kPa
393.17 K | 0.000864 ± 3.7e-05 kPa and 0.000841 ± 3.6e-05 kPa and 0.000826 ± 3.5e-05 kPa
395.17 K | 0.001037 ± 8.1e-05 kPa and 0.001005 ± 7.8e-05 kPa and 0.000971 ± 4e-05 kPa

Conditions | Molar enthalpy of transition or fusion [kcal/mol] | Normal melting temperature [°C]
[1] | – | 189.20 ± 1.6
[2] | 6.04 ± 0.146 | –

COc1ccc(C(=O)O)cc1N [3-amino-4-methoxybenzoic acid]
[1]
Conditions | vapor or sublimation pressure
379.67 K | 0.00014 ± 2.1e-05 kPa and 0.000138 ± 2.1e-05 kPa and 0.000135 ± 2.1e-05 kPa
381.72 K | 0.000174 ± 2.1e-05 kPa and 0.000169 ± 2.1e-05 kPa and 0.000164 ± 2.1e-05 kPa
383.68 K | 0.000215 ± 2.1e-05 kPa and 0.000205 ± 2.1e-05 kPa and 0.000199 ± 2.1e-05 kPa
385.16 K | 0.000247 ± 2.2e-05 kPa and 0.000252 ± 2.2e-05 kPa
387.19 K | 0.000306 ± 2.3e-05 kPa and 0.000298 ± 2.3e-05 kPa and 0.00029 ± 2.2e-05 kPa
389.18 K | 0.000382 ± 2.4e-05 kPa and 0.000363 ± 2.4e-05 kPa and 0.000353 ± 2.4e-05 kPa
391.17 K | 0.000455 ± 2.6e-05 kPa
393.21 K | 0.000568 ± 2.8e-05 kPa and 0.000557 ± 2.8e-05 kPa and 0.000536 ± 2.8e-05 kPa
395.18 K | 0.000698 ± 3.2e-05 kPa and 0.000676 ± 3.1e-05 kPa
397.2 K | 0.000832 ± 3.6e-05 kPa and 0.000811 ± 3.5e-05 kPa and 0.000786 ± 3.4e-05 kPa
399.18 K | 0.001028 ± 8e-05 kPa and 0.000967 ± 4e-05 kPa and 0.000941 ± 3.9e-05 kPa

Conditions | Molar enthalpy of transition or fusion [kcal/mol] | Normal melting temperature [°C]
[1] | – | 204.72 ± 0.6
[2] | 6.06 ± 0.136 | –

COc1cc(N)cc(C(=O)O)c1 [3-amino-5-methoxybenzoic acid]
[1]
Conditions | vapor or sublimation pressure
380.16 K | 0.000125 ± 2e-05 kPa and 0.000123 ± 2e-05 kPa
381.19 K | 0.000138 ± 2.1e-05 kPa and 0.000135 ± 2.1e-05 kPa and 0.000131 ± 2.1e-05 kPa
383.18 K | 0.000174 ± 2.1e-05 kPa and 0.000164 ± 2.1e-05 kPa and 0.000156 ± 2.1e-05 kPa
385.16 K | 0.000201 ± 2.1e-05 kPa and 0.000217 ± 2.1e-05 kPa and 0.000208 ± 2.1e-05 kPa
387.2 K | 0.000269 ± 2.2e-05 kPa and 0.000253 ± 2.2e-05 kPa and 0.000242 ± 2.2e-05 kPa
389.16 K | 0.000325 ± 2.3e-05 kPa and 0.000316 ± 2.3e-05 kPa and 0.000301 ± 2.3e-05 kPa
393.19 K | 0.000511 ± 2.7e-05 kPa and 0.00049 ± 2.6e-05 kPa and 0.000473 ± 2.6e-05 kPa
395.18 K | 0.000631 ± 3e-05 kPa and 0.000591 ± 2.9e-05 kPa and 0.00057 ± 2.8e-05 kPa
397.18 K | 0.000773 ± 3.4e-05 kPa
399.19 K | 0.000917 ± 3.8e-05 kPa and 0.000887 ± 3.7e-05 kPa and 0.000862 ± 3.7e-05 kPa
400.18 K | 0.001003 ± 7.8e-05 kPa and 0.00094 ± 3.9e-05 kPa and 0.000926 ± 3.8e-05 kPa

Conditions | Molar enthalpy of transition or fusion [kcal/mol] | Normal melting temperature [°C]
[1] | – | 183.79 ± 0.87
[2] | 5.35 ± 0.122 | –
